Measured values as given in publication PMC6764291 (Frontiers in Oncology, 2019).
Entries after “also recorded” stand apart in the source; their conditions may differ.

Columns and labels:
Noxa = experiment: Flow cytometry Noxa expression, HCT116; type: cell-based
Procedure: (§1) Cells were irradiated using ^137Cs gamma-ray photons at a dose-rate of ~1 Gy/min (Best Theratronics Gammacell® 40Exactor, Springfield, USA).
Cells were collected and fixed in 70% ethanol at 6, 12, 24, 48, 72, and 96 h post-irradiation and stored at −20°C. For cell cycle analyses, 6, 12, 24, and 48 h samples were rehydrated and washed twice with PBS and stained with DAPI (Sigma Aldrich Sweden, Stockholm, Sweden) using 1 μg/ml for 30 min. 24, 48, 72, and 96 h samples were stained with caspase-3 and Noxa (ab13847 (1:500) and ab13654 (1:1,000), AbCam, Cambridge, UK) overnight at 4°C, followed by incubation with fluorescent labeled secondary antibodies for 90 min (ab 1:400) at room temperature. Analyses were performed using a BD LSR Fortessa flow cytometer (Becton Dickinson Biosciences, San Jose, USA). Data analyses for cleaved caspase-3 and Noxa were performed with BD FACSDiVa (Becton Dickinson Biosciences, San Jose, USA), while cell cycle analyses of exclusively viable cells were performed using FlowJo (Becton, Dickinson Biosciences, San Jose, USA). Coefficient of variation (CV) values, were below seven for all samples.

H314 = experiment: XTT cell viability, H314; type: cell-based; details: n ≥ 4
Procedure: The human squamous cell carcinoma cell lines UM-SCC-74A and UM-SCC-74B were kindly provided by Professor TE Carey (University of Michigan, USA) and cultured in Dulbecco's Modified Eagle Medium (DMEM) with 10% fetal bovine serum, 1% L-glutamine, 1% antibiotics (100 IU penicillin and 100 μg/ml streptomycin) as well as 1% non-essential amino acids (all from Biochrom Kg, Berlin, Germany). UT-SCC-45 (kindly provided by Dr. R. Grenman, Turku University Central Hospital, Finland) was cultured in DMEM with the abovementioned additives. HCT116 and A431 were purchased from American Type Culture Collection (Manassas, VA, USA). […]
Five-hundred to ten thousands cells were seeded in flat-bottomed 96-well plates and incubated for 48 h prior to irradiation with 2Gy. […] Plates were incubated for up to 6 h at 37° and absorbance was measured by using a BioMark Microplate Reader (Bio-Rad Laboratories AB, Solna, Sweden).
GraphPad Prism version 6.07 (GraphPad Software, San Diego, USA) was used for data processing and analysis. p-values were determined using unpaired student's t-test for comparison between two groups or one-way ANOVA followed by Tukey's multiple comparisons test, with p < 0.05 (^*), p < 0.01 (^**), p < 0.001 (^***), and p < 0.0001 (^****). […]

p53 = experiment: Western Blot p53 expression, UM-SCC-74B; type: cell-based, human; details: n ≥ 3
Procedure: as §1
Whole-cell lysates were prepared according to standard protocols. Protein concentrations were measured using a DeNovix DS-11 spectrophotometer (DeNovix Inc., Wilmington, DE, USA). Samples were separated on 4–12% Bis-Tris SDS gels and transferred to a nitrocellulose membrane (ThermoFisher Scientific, Uppsala, Sweden) by wet-transfer blotting. The membrane was blocked for 1 h in PBS with 5% BSA before incubation with primary antibodies targeting p53, caspase-3, NaK-ATPase and GLB1 (DO-1 (ab1101), ab13847, ab76020 and ab128993, AbCam, Cambridge, UK) and β-actin (A5441, Sigma Aldrich Sweden, Stockholm, Sweden) at 4°C overnight. After washing with PBS with 1% Tween-20, the membrane was incubated with respective and species-specific Horse Radish Peroxidase-labeled secondary antibody (ThermoFisher Scientific, Waltham, MA, USA) and stained with electro-chemiluminescent solution (Immobilon, Millipore, Bedford, USA).

## CC(=O)N[C@H](C(=O)N[C@@H](CO)C(=O)N[C@@H](Cc1ccccc1)C(=O)N[C@]1(C)CCCCCCC=CCCC[C@@](C)(C(N)=O)NC(=O)[C@H](CC(C)C)NC(=O)[C@H](CC(C)C)NC(=O)[C@H](C)NC(=O)[C@H](Cc2c[nH]c3ccccc23)NC(=O)[C@H](Cc2ccc(O)cc2)NC(=O)[C@H](CCC(=O)O)NC1=O)[C@@H](C)O [PM2]
Noxa; 20 μM PM2, 72 h
  Noxa expression: distinct increases
Noxa; 2 Gy + 20 μM PM2, p ≤ 0.01, n ≥ 3
  Noxa increase, combination compared to PM2 therapy alone: 4 fold
H314; 0–20 μM PM2, 0 Gy, two p53 mutations, HPV negative
  PM2 effect: did not affect and No
H314; PM2 with 2 Gy EBRT
  Significant effect of combination: No
p53; 20 μM PM2, 24 h
  p53 expression: increased expression of p53
p53; 2 Gy + 20 μM PM2, 24 h
  p53 expression, combination versus PM2 alone: significant increase; also recorded: further increased wt p53 levels
p53; 2 Gy + 20 μM PM2, 24 h, normalized to controls
  increase in wt p53 levels following combination therapy: ~5 fold
